Measurements taken from patent US8481678B2, “Peptide-based tooth whitening reagents” (E I du Pont de Nemours and Company, priority 2009, dated 2013).
Where no end group is shown, it is not given here. The star is where a group is joined. Biotin = O=C1N[C@H]2[C@H](CS[C@H]2CCCCC(=O)*)N1

B1: Engineered Peptide: recombinant triblock reagent: two tooth-binding peptides (SEQ 108), spacers, two cellulose acetate-binding peptides (SEQ 118), His-tag; applied with cellulose acetate-coated TiO2 (protein)
chain: PHMASMTGGQQMGSYSETPNDQKPNPHYKVSGTKGPEEAAKKEEAAKKPAYSETPNDQKPNPHYKVSGTKGSGGGGSGSGGGGSVRPNLHRKAKAKPDHKQSENRKVPFYSHGSSGGGGVRPNLHRKAKAKPDHKQSENRKVPFYSHGSSGGGHHHHHH
modifications: applied with cellulose acetate-coated TiO2; Synthetic peptide-based tooth whitening reagent

tested on: not listed separately; test: Phage ELISA, tooth enamel-binding assay (unpolished enamel blocks); design: species or system bovine; conditions: phage ELISA on unpolished enamel, over 10^10 pfu phage; no-phage control 0.193
Method: A total of 11 selected phage candidates (Example 3) were used in a phage ELISA experiment. Purified phage lysates were used for binding to the enamel blocks using an anti-M13 phage antibody conjugated to horseradish-peroxidase, followed by the addition of chromogenic agent TMB, obtained from Pierce Biotechnology (Rockford, Ill.). The plates were read at A450 nm.
For each phage candidate to be tested, the polished and unpolished enamel blocks were incubated for 1 h at room temperature with 200 μL of blocking buffer, consisting of 2% non-fat dry milk (Schleicher & Schuell, Inc.) in TBS. […] The tube was rinsed 6 times with wash buffer consisting of TBST-0.05%. The wells were filled with 200 μL of TBST-0.5% containing 1 mg/mL BSA and then 10 μL (over 10^10 pfu) of purified phage stock was added. The samples were incubated at room temperature for 60 min with slow shaking. The non-binding phage was removed by washing 6 times with TBST-0.5%. […] The conjugate solution was removed and was washed 6 times with TBST-0.5%. […] “BoEn P” means bovine polished enamel and BoEn means bovine enamel.

Molecule | O.D. at 450 nm
AANPHTEWDRDAFQLAMPPK (Tooth-binding peptide) [BoEn 1] | 1.402
LNDQRKPGPPTMPTHSPAVG (Tooth-binding peptide) [BoEn 5] | 0.944
NTCATSPNSYTCSN (Tooth-binding peptide) [BoEn 6] | 2.38
SDCTAGLVPPLCAT (Tooth-binding peptide) [BoEn 7] | 0.892
VGTMKQHPTTTQPPRVSATN (Tooth-binding peptide) [BoEn 9] | 0.568
YSETPNDQKPNPHYKVSGTK (Tooth-binding peptide) [BoEn 10] | 3.942

tested on: not listed separately; test: Whitening of tea-stained bovine enamel with peptide reagent and cellulose acetate-coated TiO2 (CIELAB colour); design: key to L* / a* / b*: CIELAB coordinates: L* lightness, a*/b* chromaticity (D65 illuminant); key to ΔE: ΔE = ((ΔL*)²+(Δa*)²+(Δb*)²)^½ vs tea-stained baseline; conditions: 5 μM peptide 30 min + 0.25% CA-TiO2 30 min, versus tea-stained baseline; buffer control 3.25
Method: The peptide-based reagent comprising multiple tooth-binding peptides, spacers, and cellulose acetate-binding peptide sequences was prepared as described in Example 8.
The cellulose acetate-coated titanium dioxide was prepared as described in Example 10. The peptide-based reagent described in Example 8 (SEQ ID NO:116) was used. The peptide-based reagent was diluted with 25 mM Tris-HCl buffer including 150 mM NaCl at pH 7.5 to give a final concentration of 5 μM. The cellulose acetate-coated titanium dioxide dispersion described in Example 10 was further diluted from 20% solids to 0.25% solids in 25 mM Tris-HCl buffer at pH 7.5.
Bovine Teeth (SE Dental, Baton Rouge, La.) were used as model substrate to test with the engineered peptide-based reagent designed to bind to tooth enamel (SEQ ID NO:116). The teeth were prepared by cleaning in detergent and then disinfecting in 70% Ethanol prior to use. Each clean tooth was measured for color using an X-RITE® SP64 Spectrometer to collect a reflectance spectrum and CIELAB color coordinates, L*, a* and b*. A staining solution was made with 100 mL of boiling water exposed to 1 Lipton tea bag for 5 minutes. After the solution cooled to room temperature, each tooth was allowed to incubate in the staining solution for approximately 3 days. The teeth were removed and rinsed with water and dried. Color measurement was obtained for each tooth.
The stained bovine enamel substrates were exposed to either the 5 μM solution of peptide or as a control, the buffer used to make the peptide solution. This exposure was for 30 minutes with gentle agitation in a vortex mixer. Following peptide binding, the teeth were removed and rinsed in buffer and placed in a 0.25% solution of cellulose acetate coated titanium dioxide for 30 minutes. The teeth were removed, rinsed in buffer, blotted dry and measured for color using the X-RITE® spectrometer. The teeth were placed back in the same pigment solutions for an additional 2.5 hr and removed, rinsed and measured again.
The color intensity at each step mentioned above (e.g., to determine the change in tooth whitening) was measured using a X-RITE® SP64™ Sphere Spectrophotometer (X-Rite, Inc., Grandville, Mich.), by placing the front of the bovine tooth (treated or control) sample into a sample holder and calculating L*, a* and b* parameters representing the photometer response using a standard D65 illuminant. An initial baseline values of L*, a* and b* were measured prior to peptide treatment for the tea-stained bovine samples. All measurements are the average of three individual determinations. Delta E values are calculated using equation 1 below: Delta E=((L*1−L*2)^2+(a1−a2)^2+(b1−b2)^2)^1/2 (1) where L*=the lightness variable and a* and b* are the chromaticity coordinates of CIELAB colorspace as defined by the International Commission of Illumination (CIE) (Minolta, Precise Color Communication—Color Control From Feeling to Instrumentation, Minolta Camera Co., 1996). Larger Delta E value is indicative of an increase in whiteness. In one embodiment, a larger Delta E for the treatment group (peptide-based reagent+polymer coated white colorant) versus the Delta E of the peptide-free control is used to determine the relative increase in whiteness.

Molecule | ΔE
B1 | 6.68

same assay, conditions: 5 μM peptide 30 min + 0.25% CA-TiO2 30 min; tea-stained baseline 3.96396

Molecule | a*
B1 | 1.635

same assay, conditions: 5 μM peptide 30 min + 0.25% CA-TiO2 30 min; tea-stained baseline 22.7952

Molecule | b*
B1 | 18.0418

same assay, conditions: 5 μM peptide 30 min + 0.25% CA-TiO2 30 min; tea-stained baseline 67.0271

Molecule | L*
B1 | 71.1068

same assay, conditions: after additional 2.5 hr in CA-TiO2

Molecule | L* | a* | b*
B1 | 73.9558 | 1.496 | 18.0851

same assay, conditions: after additional 2.5 hr in CA-TiO2, versus tea-stained baseline; buffer control 3.80

Molecule | ΔE
B1 | 8.73

tested on: pellicle coated bovine enamel; test: Phage ELISA on pellicle-coated bovine enamel (30 min in vivo pellicle), Example 13; type: binding, human; conditions: 10^11 pfu, 30 min at 37° C., normalized to an internal control
Method: A total of 29 selected phage candidates from Table 14 were used in phage ELISA Experiment to determine binding affinity and coverage of each phage on pellicle substrates. Purified phage lysates were used for binding to pellicle coated bovine enamel using an anti-M13 phage antibody conjugated to horseradish-peroxidase, followed by the addition of chromogenic agent TMB, obtained from Pierce Biotechnology (Rockford, Ill.). The plates were read at A450nm.
The wells were filled with 1 mL of 10^11 pfu purified phage stock which was prepared by diluting in blocking buffer. […] The non-binding phage was removed by washing 5 times with PBST. […] The conjugate solution was removed and was washed 3 times with PBST.

Molecule | O.D. at 450 nm (normalized)
TTYHYKNIYQESYQQRNPAV (Synthetic oral-surface binding peptide) [DenP 03] | 2.495

tested on: pellicle-coated enamel substrates; test: not given; conditions: 20 μM synthetic biotinylated peptide, 30 min at 37° C.; normalized to DenP03; three replicates; no peptide −0.001
Method: A total of 20 synthetic peptides were manufactured using sequences obtained from Table 14. Peptides were obtained from Synbiosci (Livermore, Calif.) and included an additional SSRP sequence (SEQ ID NO: 151) at the N-terminus and biotin labeled lysine at the C-terminus.
Enamel substrates were cut to approx. 7 mm squares and mounted on wax mounting for incubation in the mouth for 30 min to form a pellicle coated surface. The pellicle-coated enamel substrates were removed from the wax backing and placed in well plates with the pellicle surface exposed as in Example 1. Each pellicle-coated substrate was incubated for 1 h at room temperature (˜22° C.) with 1 mL of blocking buffer, consisting of 1 mg/mL BSA in PBST (Pierce BupH™ #28372 with 0.1% TWEEN® 20). The blocking buffer was removed by aspirating the liquid out of each well. The tube was rinsed 2 times with wash buffer consisting of PBST. The wells were filled with 500 μL of 20 μM peptide solution which was prepared by diluting in blocking buffer. The samples were incubated for 30 min with slow shaking at 37° C. The non-binding peptide was removed by washing 6 times with PBST. Then, 500 μL of horseradish peroxidase/streptavidin conjugate (Pierce #22127), diluted 1:2000 in PBST, was added and incubated for 1 h at room temperature. The conjugate solution was removed and was washed 4 times with PBST.
Each enamel substrate was removed from the well and washed again in a 15-mL test tube with 10 mL of PBST. Each enamel substrate was then mounted in a clean well plate with only the enamel surface exposed. A 1:1 solution of TMB substrate and H2O2 (200 μL), obtained from Pierce Biotechnology (Rockford, Ill.) was added to each well and the color was allowed to develop for between 10 to 20 min, typically for 15 min, at room temperature (˜22° C.). Then, 100 μL of solution from each well was transferred to a 96-well reading plate containing stop solution (100 μL of 2 M H2SO4) in each well. The A450 was measured using a microplate spectrophotometer (Molecular Devices, Sunnyvale, Calif.). […] Each sequence was tested with three replicate enamel coated pellicle substrates.

Molecule | O.D. at 450 nm (normalized)
SSRPQVPDYLSPTHQKKAFLEIPTK(Biotin) [DenP29-A] | 0.468
SSRPSEARARTFNDHTTPMPIIK(Biotin) [DenP14-A] | 0.269
SSRPTMTNHVYNSYTEKHSSTHRSK(Biotin) [DenP2-A] | 0.273
SSRPTTGSSSQADTSASMSIVPAHK(Biotin) [DenP17-A] | 0.143
SSRPTYQGVPSWPAVIDDAIRRK(Biotin) [DenP19-A] | 0.712
SSRPVEPATKNMREARSSTQMRRIK(Biotin) [DenP4-A] | 0.803
SSRPVNPNWVETQALHQPPGNTK(Biotin) [DenP20-A] | 0.590
SSRPYLLPKDQTTAPQVTPIVQHKK(Biotin) [DenP5-A] | 0.462

tested on: pellicle-coated bovine enamel; test: Phage ELISA on pellicle-coated bovine enamel, candidates from brushed 8 hr pellicle, Example 17; type: binding, human; conditions: phage ELISA screened with 30 min in vivo pellicle; normalized to DenP3; no-phage control 0.094
Method: A total of 18 selected phage candidates were used in a phage ELISA Experiment. Purified phage lysates were used for binding to pellicle-coated bovine enamel using an anti-M13 phage antibody conjugated to horseradish-peroxidase, followed by the addition of chromogenic agent TMB, obtained from Pierce Biotechnology (Rockford, Ill.). The plates were read at A450nm.
The wells were rinsed 2 times with wash buffer consisting of PBST. The wells were filled with 1 mL of […] purified phage stock which was prepared by diluting in blocking buffer. […] The non-binding phage was removed by washing 5 times with PBST. Then, 500 μL of horseradish peroxidase/anti-M13 antibody conjugate (Amersham USA, Piscataway, N.J.), diluted 1:500 in the blocking buffer, was added and incubated for 45 min at room temperature. The conjugate solution was removed and was washed 5 times with PBST.

Molecule | O.D. at 450 nm (normalized)
AIEYQHSATTPWTMRTRLPP [DenP101] | 0.467
DGYKLQTSLDWQMWNP [DenP111] | 1.051
EFYPFAEVPPEKSGIGRQVF [DenP102] | 0.520
FPSKWYNHHRHITGHV [DenP112] | 0.413
GGMGALESYRQWNHLA [DenP113] | 1.348
GINKGQRPPWESWHEN [DenP114] | 0.703
GVHQYSRPTVPSYLWTSGQH [DenP103] | 0.879
GYGQYVSQQTWAHSNK [DenP115] | 0.501
GYQPHYVDHTIGWQPMIRPN [DenP104] | 0.790
HDHLSWWGQFDRQNLL [DenP116] | 1.055
MPGHQESIKVQNWNRV [DenP117] | 0.433
NLHSPWPSHAAHHWST [DenP118] | 0.641
NQQMKLVPQHWHRAQP [DenP119] | 1.051
QFNQTSHSFMHGTSGYVPGK [DenP105] | 0.470
SFSWHRGDWELGHQSKTMGM [DenP106] | 1.524
SMWHDITKRYRNPSEMVSAY [DenP107] | 0.726
THGNKHQSWTYPSEINHKNY [DenP108] | 1.149
TTYHYKNIYQESYQQRNPAV (Synthetic oral-surface binding peptide) [DenP 03] | 1.000
WHEPHQFSGENTDYSSSMGT [DenP109] | 0.716
